For five compounds, Activity, MIC and IC50 results are on record in ChEMBL document CHEMBL1150152, “Araguspongines K and L, new bioactive bis-1-oxaquinolizidine N-oxide alkaloids from Red Sea specimens of Xestospongia exigua” (J Nat Prod, 2002).

Values after ≈ are worked out from the molar mass of the structure shown. Active and inactive are the calls of the source. No cut-off for these calls is given here.

A word on the MIC: it is the lowest concentration found to suppress growth. Lower therefore signals greater potency. What is called IC50 is the midpoint of a concentration-inhibition curve.

The test system of assay [1] is Plasmodium falciparum. Kind of assay: Antimalarial activity against Plasmodium falciparum D6. The format is functional, organism-based.
The test system of assay [2] is Plasmodium falciparum. Kind of assay: Antimalarial activity against Plasmodium falciparum W2. The class given is functional, organism-based.
For assay [3], the system named is Mycobacterium tuberculosis. Kind of assay: Antitubercular activity against Mycobacterium tuberculosis H37Rv by alamar blue assay. The format is functional. A general note: The colour change of resazurin is a common sign of viable cells or microbes.

As for `[O-][N+]12CCC[C@]3(O)CCCCCC[C@@H]4CCN5CCC[C@](O)(CCCCCC[C@H](CC1)O[C@@H]32)[C@@H]5O4` (stereo not given in full), the result in the assay on Plasmodium falciparum [1] and with Plasmodium falciparum [2] was inactive.

Take `CO[C@H]1/C=C/O[C@@]2(C)Oc3c(C)c(O)c4c(O)c(c(/C=N/N5CCN(C)CC5)c(O)c4c3C2=O)NC(=O)/C(C)=C\C=C\[C@H](C)[C@H](O)[C@@H](C)[C@@H](O)[C@@H](C)[C@H](OC(C)=O)[C@@H]1C` [RIFAMPIN]: the MIC in assay [3] was 0.61 µM (≈ 0.502 µg/mL).

As for `C[C@@H]1CC[C@H]2[C@@H](C)C(=O)O[C@@H]3O[C@@]4(C)CC[C@@H]1[C@]32OO4` [ARTEMISININ], the IC50 in the assay on Plasmodium falciparum [1] is 0.006 µg/mL (≈ 0.0213 µM); in the assay on Plasmodium falciparum [2] it was 0.007 µg/mL (≈ 0.0248 µM).

Take `[O-][N+]12CCC[C@]3(O)CCCCCC[C@@H]4CCN5CCC[C@@H](CCCCCC[C@H](CC1)O[C@@H]32)[C@@H]5O4` (stereo not given in full): the result in the assay with Plasmodium falciparum [1] and in the assay on Plasmodium falciparum [2] was inactive.

For `O[C@]12CCCCCC[C@@H]3CCN4CCC[C@](O)(CCCCCC[C@@H]5CCN(CCC1)[C@H]2O5)[C@@H]4O3`, the IC50 in the assay on Plasmodium falciparum [1] came to 0.67 µg/mL (≈ 1.4 µM); in the assay on Plasmodium falciparum [2], 0.28 µg/mL (≈ 0.585 µM). The same compound had an MIC in assay [3] of 3.94 µM (≈ 1.89 µg/mL).
